# In US7264811B2, “Purified active HCV NS2/3 protease” (priority 2000, dated 2007):
# Where a SMILES comes first, the peptide text is derived from it.
# Target: T1, NS2/3 protease (Hepatitis C virus genotype 1b, UniProt P26663)
# T1 construct: In a well defined assay system using purified NS2/3 (904-1206) and an optimized cleavage buffer; made in house; host or cells: E. coli BL21(DE3)pLysS
# Assay: biochemical
# Design: species or system Hepatitis C virus (HCV) genotype 1b
# Conditions: for trans-cleavage of the peptide by NS2/3 protease: identical assay conditions, data not shown
# Procedure: NS2/3 protease cleavage-site derived peptides were evaluated as potentially competing substrates (Table 1). NS2/3 protease cleavage-site derived peptides and NS4A-derived peptides were synthesized in-house using the standard solid-phase methodology or were made by Multiple Peptide Systems (San Diego, Calif.). Various concentrations of peptides were pre-incubated with 0.54 μM NS2/3 protease for 30 min at 23° C. in 50 mM Hepes, pH 7.0, and 50% (w/v) glycerol. The autocleavage reaction was initiated by addition of n-dodecyl-β-D-maltoside to a final concentration of 0.5%. The final DMSO content never exceeded 5% (v/v). The resulting mixture was then incubated for 3 h at 23° C. The reaction was stopped and quantified.
Compound,IC50,trans-cleavage of the peptide by NS2/3 protease
"CC(C)C[C@H](NC(=O)[C@H](CC(C)C)NC(=O)[C@H](CCCNC(=N)N)NC(=O)[C@H](Cc1c[nH]c2ccccc12)NC(=O)CNC(=O)[C@H](CCC(N)=O)NC(=O)CNC(=O)[C@H](CCC(=O)O)NC(=O)[C@H](Cc1ccccc1)NC(=O)[C@@H](N)CO)C(=O)O [Peptide 2, SFEGQGWRLL] (H-SFEGQGWRLL-OH; N-terminus and C-terminus assumed)",90 µM,
"CC[C@H](C)[C@H](NC(=O)[C@@H]1CCCN1C(=O)[C@H](C)NC(=O)[C@H](CC(C)C)NC(=O)[C@H](CC(C)C)NC(=O)[C@H](CCCNC(=N)N)NC(=O)[C@H](Cc1c[nH]c2ccccc12)NC(=O)CNC(=O)[C@H](CCC(N)=O)NC(=O)CNC(=O)[C@H](CCC(=O)O)NC(=O)[C@H](Cc1ccccc1)NC(=O)[C@@H](N)CO)C(=O)N[C@H](C(=O)N[C@@H](C)C(=O)N[C@@H](Cc1ccc(O)cc1)C(=O)N[C@@H](CO)C(=O)N[C@@H](CCC(N)=O)C(=O)N[C@@H](CCC(N)=O)C(=O)N[C@H](C(=O)O)[C@@H](C)O)[C@@H](C)O [Peptide 1, SFEGQGWRLL-APITAYSQQT]",270 µM,no trans-cleavage
"CC[C@H](C)[C@H](NC(=O)[C@@H]1CCCN1C(=O)[C@H](C)N)C(=O)N[C@H](C(=O)N[C@@H](C)C(=O)N[C@@H](Cc1ccc(O)cc1)C(=O)N[C@@H](CO)C(=O)N[C@@H](CCC(N)=O)C(=O)N[C@@H](CCC(N)=O)C(=O)N[C@H](C(=O)O)[C@@H](C)O)[C@@H](C)O [Peptide 3, APITAYSQQT] (H-APITAYSQQT-OH)",> 1000 µM,
"CC[C@H](C)[C@H](NC(=O)[C@@H]1CCCN1C(=O)[C@H](C)NC(=O)[C@H](CC(C)C)NC(=O)[C@H](CC(C)C)NC(=O)[C@H](CCCNC(=N)N)NC(=O)[C@H](Cc1c[nH]c2ccccc12)NC(=O)CNC(=O)[C@@H](N)CCCCN)C(=O)N[C@H](C(=O)N[C@@H](C)C(=O)N[C@@H](Cc1ccc(O)cc1)C(=O)O)[C@@H](C)O [Peptide 4, KGWRLL-APITAY]",630 µM,no trans-cleavage
"CC[C@H](C)[C@H](NC(=O)[C@@H]1CCCN1C(=O)[C@H](C)N)C(=O)N[C@H](C(=O)N[C@@H](C)C(=O)N[C@@H](Cc1ccc(O)cc1)C(=O)O)[C@@H](C)O [Peptide 5, APITAY] (H-APITAY-OH)",1000 µM,
